The record followed here is US10323001B2, “Compositions for modulating a kinase cascade and methods of use thereof” (Athenex, Inc., priority 2006, dated 2019).

Holding throughout (type): physicochemical
Data set [1] is described as follows: Moisture-sorption analysis (Hiden IGAsorp). Conditions: for Moisture Sorption Wt % Water @ 90% RH: mesylate. Here is the method:
Moisture-sorption experiments were performed using a Hiden IGAsorp Moisture Sorption instrument on KX2-391.MSA obtained in accordance with the process of the present invention (Example 4). First, the sample was dried at 0% Relative Humidity (RH) and 25° C. until an equilibrium weight was reached or for a maximum of four hours. The sample was then subjected to an isothermal (25° C.) adsorption scan from 10 to 90% RH in steps of 10%. The sample was allowed to equilibrate to an asymptotic weight at each point for a maximum of four hours. Following adsorption, a desorption scan from 85 to 0% RH (at 25° C.) was run in steps of −10% again allowing a maximum of four hours for equilibration to an asymptotic weight. The sample was then dried for one hour at 80° C. and the resulting solid analyzed by XRPD. […] FIG. 10 depicts percent change of water content as a function of relative humidity for KX2-391.MSA, Form A.
Moisture-sorption experiments were performed using a Hiden IGAsorp Moisture Sorption Instrument on KX2-391.2HCl obtained in accordance with the process of the present invention (Example 3). First, the sample was dried at 0% Relative Humidity (RH) and 25° C. until an equilibrium weight was reached or for a maximum of four hours. The sample was then subjected to an isothermal (25° C.) adsorption scan from 10 to 90% RH in steps of 10%. The sample was allowed to equilibrate to an asymptotic weight at each point for a maximum of four hours. Following adsorption, a desorption scan from 85 to 0% RH (at 25° C.) was run in steps of −10% again allowing a maximum of four hours for equilibration to an asymptotic weight. The sample was then dried for one hour at 80° C. and the resulting solid analyzed by XRPD.

Data set [2] can be described thus: Stability studies, 2 weeks at elevated temperature and/or relative humidity. Conditions: for Form After 2 Weeks (XRPD): initial Form A; for Time to deliquescence: 95% RH, mesylate. How it is done: Stability studies were performed on KX2-391.MSA obtained in accordance with the process of the present invention (Example 4) using the conditions listed in Table 4 to determine the effects of exposure to elevated temperature and/or relative humidity on the crystalline form of KX2-391.MSA, Form A. After 2 weeks, the samples were analyzed by XRPD and HPLC to determine if any form change or degradation had occurred.

Data set [3] is described as follows: 5 mg/mL DI water dissolution experiment. Set-up: key to dissolution state: P—Particulates partially dissolved; D—Particulates fully dissolved. The following applies: about 5 mg in 1 mL DI water, magnetic stirring. How it is done:
Dissolution experiments were performed on KX2-391 salts to provide a better understanding of the salts interaction in water. This was accomplished using a 5 mg/mL DI water dissolution experiment where 5 mg of each salt was weighed into a vial and 1 mL of DI wather was added. The solution was monitored visually with magnetic stirring over a 20 minute time period to observe the time of dissolution.

Setting [4] is: 40° C./75% RH, accelerated stability chamber.

Counter-ions that a name gives are not always drawn. Bounds are passed on as bounds.

In the case of `O=C(Cc1ccc(-c2ccc(OCCN3CCOCC3)cc2)cn1)NCc1ccccc1` [KX2-391.MSA, 2-(5-(4-(2-morpholinoethoxy)phenyl)pyridine-2-yl)-N-benzylacetamide mesylate], the “hygroscopicity by moisture sorption analysis” value in data set [1] (25° C., adsorption scan 10 to 90% RH) is on record as “slightly-hygroscopic”. Further, the “water absorbed at 60% RH” value in data set [1] (60% RH, 25° C.) is reported as 1.1 wt %. Besides, the “Moisture Sorption Wt % Water @ 90% RH” value in data set [1] (25° C., listed as MSA) is reported as 5.7 wt %; in data set [1] (25° C.), 5.7 wt %. Moreover, in data set [1] (after adsorption/desorption scans and drying one hour at 80° C.), the “XRPD pattern of material resulting from the moisture sorption experiment” value is on record as “consistent with the starting form”. Also, the “stability of crystalline form after exposure to the accelerated stability conditions” value in data set [2] (2 weeks, conditions of Table 4) was “stable crystalline form”. Also, the “HPLC Purity (AUC) after 2 weeks” value in data set [2] (setting [4]) is listed as above 99%; in data set [2] (51% RH, saturated salt chamber), above 99%; in data set [2] (60° C./ambient humidity, oven) it was above 99%; in data set [2] (75% RH, saturated salt chamber), above 99%; in data set [2] (88% RH, saturated salt chamber) it was above 99%. Further, the “Form After 2 Weeks (XRPD)” value in data set [2] (setting [4]) is “Form A”; in data set [2] (51% RH, saturated salt chamber) it was “Form A”; in data set [2] (60° C./ambient humidity, oven), “Form A”; in data set [2] (75% RH, saturated salt chamber), “Form A”; in data set [2] (88% RH, saturated salt chamber), “Form A”. The Time to deliquescence entry in data set [2] (saturated salt chamber, listed as KX2-391-MSA) was “quesced <16 hrs”; in data set [2] (saturated salt chamber), “less than 16 hrs”. The dissolution state result in data set [3] (0 s) is listed as “P”; in data set [3] (30 s), “P”; in data set [3] (1 min) it was “D”.
